Results as given in article PMC12040169 (PLOS Biology, 2025).

Test: in vitro
Conditions: human, hela cells, % viability

Structure (SMILES)	viability at 28.5 h, 10 µM	viability at 28.5 h, 10 µM (bulk resorufin, single well)
O=C(Nc1ccc(OCc2ccoc2)cc1C(=O)O)c1ccc(Cl)cc1Cl [CBK003768D]	87.5%	
CN1CCN(C(=O)CNS(=O)(=O)c2ccccc2)CC1 [CBK265767]	92.6%	
O=C(Nc1ccc(S(=O)(=O)Nc2nccc(/C=C/c3ccc(Cl)cc3)n2)cc1)c1ccc(Br)cc1 [CBK263500]	103%	
Cc1ccc(/C=N/n2c(S)nnc2COc2ccccc2)o1 [CBK265244]	110%	
O=C(O)c1cccc2c1C(=O)N(Cc1ccncc1)C2 [CBK291146]	80.6%	
O=C(/C=C\c1cn(-c2ccccc2)nc1-c1cccc([N+](=O)[O-])c1)n1nnc2ccccc21 [CBK265273]	104%	
CCC(C)NC(=O)Cn1c(C2CCOCC2)cc2cccnc21 (stereo not shown) [CBK285390]	104%	
Cc1nc(C2(O)CCCN(Cc3cccc(F)c3)CC2)sc1CCOc1ccccc1 (stereo not shown) [CBK286024]	89.6%	
Cc1ccc(N2NC(=O)/C(=C/c3ccc(-c4ccc5c(c4)C(=O)NC5=O)o3)C2=O)cc1C [CBK262963]	81.6%	
COc1cc(/C=C2\C(=O)NC(=S)N(c3cccc(C)c3C)C2=O)ccc1OC(C)C(=O)O (stereo not shown) [CBK265132]		98.7%
Fc1ccccc1CSc1nc2ccc[nH]c-2n1 [CBK287883]	91.2%	
COc1ccc(NC(=O)C[C@@H]2C[C@@H](C(C)C)[C@H](CC#N)C=C2C)cn1 [CBK289216]	85.7%	
CCC1CCCCN1C(=O)c1ccc(OC)c(OC)c1 (stereo not shown) [CBK084527]	117%	
COc1ccc2ccccc2c1CNCCCN1CCOCC1 [CBK278209C]	93.8%	
CC(=O)Nc1ccc(NC(=O)CSC2=C(C#N)C(c3ccco3)C3=C(CCCC3=O)N2)cc1 (stereo not shown) [CBK264462]	91.8%	
CC(=O)N1CCC2(CC1)OCc1cc(-c3ccc(CCC(=O)O)cc3)ccc1O2 [CBK060971]		90.3%
CC1(C)CC(=O)C2=C(C1)c1c(ccc3ccccc13)NC2c1ccc(N2CCC(Cc3ccccc3)CC2)c([N+](=O)[O-])c1 (stereo not shown) [CBK262944]	94.2%	
CS(=O)(=O)N(CC(=O)Nc1ccc(S(=O)(=O)N2CCCCCC2)cc1)c1ccccc1F [CBK266829]	92.9%	
Cc1ccc2cc(C)c3nn(CC(=O)NC4CC4)c(=O)n3c2c1C [CBK283822]	83.8%	
NS(=O)(=O)c1ccc(N/C(S)=N\c2cccc(C(=O)O)c2)cc1 [CBK266880]	103%	
COCc1ccc(C(=O)N2CCC(Cc3ccccc3-c3cccs3)(C(N)=O)CC2)cc1 [CBK286276]	102%	

Structure (SMILES)	viability at 28.5 h, 10 µM	viability at 28.5 h, 10 µM (bulk resorufin, single well)
CCOC(=O)Cc1csc(NC(=O)CSc2nc3cc4c(cc3cc2C)OCO4)n1 [CBK109112]	105%	
Cc1ccc(S(=O)(=O)N2C[C@H](O)C[C@H]2C(=O)O)cc1 [CBK289276]	103%	
COCCN1C(=O)C2(CC(=O)N(Cc3ccccc3)C2=O)c2cc(OC)ccc21 (stereo not shown) [CBK075177]	92.5%	
Clc1nsnc1N1CCOCC1 [CBK019133]	101%	
O=C(O)c1ccccc1C(=O)Nc1cccc(-c2noc(-c3cccc(F)c3)n2)c1 [CBK299813]	92%	
Cc1cccc(=O)n1CCC(=O)N1CCCCC1CN1CCOCC1 (stereo not shown) [CBK306528]	109%	
Cc1cnn(CCCNC(=S)Nc2ccc(S(N)(=O)=O)cc2)c1 [CBK266957]	90.7%	
Cc1nc(-c2cc3c(s2)CCN(CC(O)Cn2cccn2)C3)cs1 (stereo not shown) [CBK304458]	102%	
CCC12CN3CC(CC)(CN(C1)C3c1c(C)[nH]c3ccccc13)C2=O (stereo not shown) [CBK265547]	89.4%	
Oc1cc(C(F)(F)F)nc(CCc2ccc(Cl)cc2)n1 [CBK003678]	107%	
Cc1nc(NS(=O)(=O)c2c(C)noc2C)sc1C(=O)N1CCOCC1 [CBK050574]	98.4%	
Cc1nc2ccc(C(=O)N3CCC(O)(c4ccccc4C)CC3)cc2[nH]1 [CBK283300]	95.8%	
CCCCN1CCC(CNc2nccc3sc(S(=O)(=O)NC4CCC4)cc23)CC1 [CBK038275C]	95.9%	
Cc1nc(-c2cc(Cl)c(Cl)s2)cs1 [CBK009801]	84.2%	
c1ccc(Cn2c(CN3CCCC3)nc3ccccc32)cc1 [CBK269612]	87.7%	
O=C(c1ccccc1)N1C[C@H](c2ccc(F)cc2)[C@H]2CN(Cc3ccccc3F)CC[C@H]21 [CBK286289]	90.1%	
Cc1cc2c(cc1S(=O)(=O)NCc1ccccc1)NC(=O)CO2 [CBK270159]	85.2%	
CCCc1nc(SC)ncc1C(=O)Nc1nnc(SCC)s1 [CBK291198]	108%	
C#CCNS(=O)(=O)c1cccc(C(=O)NCC2CCCN(C(C)C)C2)c1 (stereo not shown) [CBK305981]	109%	
CC(C)(C)OC(=O)N1CCN(S(=O)(=O)c2ccc(Cl)c([N+](=O)[O-])c2)CC1 [CBK003165]	100%	
O=C(CSc1nc2[nH]ncc2c(=O)n1-c1ccccc1)Nc1ccc(F)c(Cl)c1 [CBK266453]	97.6%	

Structure (SMILES)	viability at 28.5 h, 10 µM	viability at 28.5 h, 10 µM (bulk resorufin, single well)
O=C1COc2ccccc2C/C=C/CC2(CCN(C(=O)Cn3cccn3)CC2)C(=O)NCCN1 [CBK292003]	117%	
COc1ccc(C(=O)Nc2c(C)nn(C)c2N2CCNCC2)cc1 [CBK050306T]	94.5%	
CCN(CC(=O)NCc1ccc(F)cc1)S(=O)(=O)c1ccccc1C#N [CBK305842]	91.1%	
COc1ccc(Cl)cc1NC(=S)NNC(=O)c1cccnc1 [CBK267161]	92.7%	
O=C(NCCCn1ccnc1)c1cc(-c2cccc(Br)c2)nc2ccccc12 [CBK265476]	91.4%	
CN(C)[C@H]1CC[C@@H](Cc2ccccc2)C[C@@H]1NC(=O)c1ccc(Cl)c(Cl)c1 [CBK012488]	97.3%	
CS(=O)(=O)c1ccc(-c2ccc(C(=O)N3CCN(C(=O)c4ccco4)CC3)cn2)cc1 [CBK160190]	95.2%	
NC(=O)C1(Cc2cccc(-c3cccs3)c2)CCN(C(=O)Cc2cccc(F)c2)CC1 [CBK285783]	98%	
Cc1cccc(-c2ncc(NC(=O)Cc3ccc(-c4ccccc4)cc3)nc2-c2ccc(N(C)C)cc2)c1 [CBK037567]	98.1%	
COCCn1c(CO)nnc1[C@H]1C[C@@H](NC(=O)c2ccc(C)cc2F)C1 [CBK307296]	101%	
O=C(Nc1ccc(S(=O)(=O)N2CCCCC2)cc1)c1ccc(NS(=O)(=O)c2ccccc2)cc1 [CBK268348]	88.3%	
Cc1c(C(=O)O)sc2nc(C=Cc3ccc(OCCC(C)C)cc3)[nH]c(=O)c12 [CBK297539]	94%	
CCn1cncc1CN1CC2CCCC(O)(c3ccc(F)cc3)C2C1 (stereo not shown) [CBK282119]	104%	
Nc1nnc(SCc2ccc(Br)cc2)s1 [CBK026356]	109%	
CCN1CCN(Cc2ccc(OC)c(OCc3ccccc3)c2)CC1 [CBK261910]	89.4%	
CCC(CN1CCN(C)CC1)NC(=O)Cc1coc2cc(C)ccc12 (stereo not shown) [CBK282790]	102%	
COc1ccc(CCNC(=O)CN2CCCC2c2cnn(C)c2)cc1 (stereo not shown) [CBK305371]	84.2%	
CC(=O)Nc1ccc(Nc2ncnc3scc(-c4ccccc4)c23)cc1 [CBK264930]	93.6%	
NC(=O)NC(Cc1c[nH]c2ccccc12)C(=O)O (stereo not shown) [CBK218895]	105%	
